Series [1] has as its system participants who met criteria for cocaine use disorder. Kind of series: Cocaine-induced cardiovascular effects. Type of series: in vivo, human. The settings on record: nepicastat 0, 80, 160 mg; cocaine 0, 10, 20, 40 mg IV; n = 13.
Series [2] has the same test system. Kind of series: Cocaine-induced subjective effects. The class given is in vivo, human. The settings on record: VAS.
For a further series, the system named is rats. The settings on record: ref Schroeder et al., 2013; cited from earlier work.
A short description of series [3]: Plasma pharmacokinetics of cocaine after 10 mg IV infusion. The settings on record: cocaine 10 mg IV.
Series [4] concerns participants who met criteria for cocaine use disorder. As to the kind of experiment: Reinforcing effects: choice session, cocaine vs money self-administration. Type of series: in vivo, human. The settings on record: Day 13; nepicastat 0 or 160 mg; cocaine 0 or 20 mg IV.
Series [5] deals with DA and NE release in mPFC and NAc. The settings on record: rats, microdialysis; ref Devoto et al., 2014; cited from earlier work.
The subject of series [6] is participants who met criteria for cocaine use disorder. Kind of series: Adverse events, inpatient study of oral nepicastat with IV cocaine. Type of series: in vivo, human.
Where [7] appears, read: Treatment–Cocaine period, nepicastat group n = 14.

In the case of `Cl.NCc1c[nH]c(=S)n1[C@H]1CCc2c(F)cc(F)cc2C1.O` [nepicastat, (S)-5-aminomethyl-1-(5,7-difluoro-1,2,3,4-tetrahydronaphth-2-yl)-1,3-dihydroimidazole-2-thione hydrochloride monohydrate], in series [1], the “Main effect on peak heart rate (ANOVA)” value is reported as “one was detected” and the “Main effect on peak systolic or diastolic blood pressure (ANOVA)” value is reported as “did not reveal a main effect”. Moreover, in series [2] (nepicastat 80 and 160 mg oral with IV cocaine), the “Effect on negative subjective effects” value is given as “did not increase”. Besides, the “Reduction of the positive subjective effects produced by cocaine” value in series [2] (nepicastat 80 and 160 mg oral, n = 13) is ~ 25%. The Breakpoint for cocaine result in the series with rats was “significantly lowered”. The “Effect on PK parameters of benzoylecgonine or ecgonine methyl ester” value in series [3] (Day 3 vs Day 11, data not shown) is “None of the PK parameters for benzoylecgonine or ecgonine methyl ester showed statistically significant changes”. In series [3] (oral nepicastat 160 mg), the “Effect on kinetics, metabolism or clearance of cocaine or its metabolites” value was “did not change”. Moreover, the “Main effect on choices for cocaine vs money (ANOVA)” value in series [4] is given as “did not reveal a main effect”. The “DA release in the mPFC and NAc” value in series [5] is “increasing DA release in the mPFC but not in the NAc”. For the same compound, in series [6] (setting [7]), the “Incidence of Abnormal dreams” value is 0 (0) number (%) of subjects, the “Incidence of Arthralgia” value is reported as 2 (14) number (%) of subjects, the “Incidence of Back pain” value is given as 0 (0) number (%) of subjects and the “Incidence of Depressed mood” value is on record as 1 (7) number (%) of subjects. Besides, in series [6] (setting [7]), the “Incidence of Dizziness” value was 0 (0) number (%) of subjects, the “Incidence of Dyspepsia” value is on record as 2 (14) number (%) of subjects, the “Incidence of Gastroesophageal reflux disease” value is reported as 3 (21) number (%) of subjects and the “Incidence of Headache” value is 2 (14) number (%) of subjects. Also, in series [6] (setting [7]), the “Incidence of Insomnia” value was 4 (29) number (%) of subjects, the “Incidence of Myalgia” value is on record as 0 (0) number (%) of subjects, the “Incidence of Nausea” value is reported as 1 (7) number (%) of subjects and the “Incidence of Neck pain” value was 2 (14) number (%) of subjects. Further, in series [6] (setting [7]), the “Incidence of Vessel puncture site hematoma” value is reported as 0 (0) number (%) of subjects and the “Incidence of Vessel puncture site pain” value was 4 (29) number (%) of subjects. The “Safety and tolerability (number, type, severity and duration of AEs vs placebo)” value in series [6] (oral nepicastat 80 and 160 mg during IV cocaine exposure) was “safe and well-tolerated”.

Values taken from PMC4777897 (Progress in neuro-psychopharmacology & biological psychiatry, 2015).
